Some test systems named below: Candida glabrata 090902; Bacillus cereus AS1.126; Escherichia coli AS1.349; Escherichia coli 44102; Bacillus subtilis A47.
Common to all, as to test: ≥ marks a high value that may be exact or a test limit, other limits are often not marked, values filed in µg/mL are converted to µM
Assay [1] concerns Psychrobacter faecalis X29.
Assay [2] relates to Nocardia asteroides 201118.
Assay [3] deals with Enterococcus faecalis 981.
Assay [4] has as its system Staphylococcus aureus ATCC 25923.
The subject of assay [5] is Enterococcus faecium 091299.
Assay [6] concerns Enterobacter cloacae CGMCC 1.57.
Assay [7] relates to Klebsiella pneumoniae 08040724.
Assay [8] relates to Salmonella enterica subsp. enterica serovar Typhimurium ATCC 14028.
Assay [9] relates to Escherichia coli ATCC 11219.
Assay [10] deals with Klebsiella pneumoniae ATCC 10031.
The subject of assay [11] is Pseudomonas aeruginosa ATCC 13388.
Assay [12] relates to Staphylococcus aureus ATCC 6538.
The test system of assay [13] is Pseudomonas aeruginosa ATCC 27853.
The subject of assay [14] is Staphylococcus aureus ATCC 33591.
Assay [15] relates to Staphylococcus epidermidis ATCC 35984.
Assay [16] has as its system Bacillus subtilis ATCC 6051.
For assay [17], the system named is Escherichia coli NEB5alpha.
In assay [18] the test system is Staphylococcus epidermidis CICC 23664.
The subject of assay [19] is Proteus mirabilis CICC 22931.
Assay [20] deals with Enterococcus faecium CGMCC 1.2334.
For assay [21], the system named is Pseudomonas aeruginosa CGMCC 1.860.
The subject of assay [22] is Enterococcus faecalis CGMCC 1.595.
Assay [23] has as its system Enterobacter cloacae CGMCC 1.58.
Assay [24] has as its system Klebsiella pneumoniae subsp. pneumoniae CGMCC 1.176.
Assay [25] relates to Staphylococcus aureus AS1.72.
Assay [26] has as its system Staphylococcus aureus 22401.

Values after ≈ are worked out from the molar mass of the structure shown.

By MIC is commonly meant the smallest concentration in the dilution series that meets the test's criterion for growth inhibition. For `CC[C@H](C)[C@H](NC(=O)[C@@H](NC(=O)[C@H](CCCCN)NC(=O)CNC(=O)[C@H](CC(C)C)NC(=O)[C@@H](NC(=O)[C@@H]1CCCN1C(=O)[C@H](CC(C)C)NC(=O)[C@@H](N)Cc1ccccc1)C(C)C)C(C)C)C(=O)N[C@@H](CCCCN)C(=O)N[C@@H](CC(C)C)C(=O)N[C@H](C(=O)NCC(=O)NCC(=O)N[C@@H](CC(C)C)C(=O)N[C@@H](CC(C)C)C(N)=O)C(C)C` [FLPVLGKVIKLVGGLL], the MIC in assay [1] was at least 50 µM; in assay [2] it was 3.1 µM (≈ 5.16 µg/mL); against Candida glabrata 090902 it was at least 50 µM; in assay [3], 3.1 µM (≈ 5.16 µg/mL); in [4], 3.1 µM (≈ 5.16 µg/mL).

On to `CC[C@H](C)[C@@H]1NC(=O)[C@H](CCCCN)NC(=O)[C@@H](NC(=O)[C@H](CCCCN)NC(=O)[C@H](CC(C)C)NC(=O)[C@H](CCCCN)NC(=O)[C@H](CC(=O)O)NC(=O)[C@H](CC(C)C)NC(=O)[C@H](CC(C)C)NC(=O)[C@@H](NC(=O)[C@@H](NC(=O)[C@H](C)NC(=O)[C@@H](NC(=O)[C@H](CC(N)=O)NC(=O)[C@H](CCCCN)NC(=O)[C@H](Cc2ccccc2)NC(=O)[C@@H](NC(=O)[C@H](CC(N)=O)NC(=O)[C@H](CCCCN)NC(=O)[C@H](C)NC(=O)[C@@H](NC(=O)[C@H](CC(=O)O)NC(=O)[C@H](CCSC)NC(=O)[C@H](Cc2ccccc2)NC(=O)CN)[C@@H](C)O)C(C)C)C(C)C)C(C)C)[C@@H](C)O)CSSC[C@@H](C(=O)O)NC(=O)CNC(=O)CNC(=O)[C@H](C)NC1=O` [GFMDTAKNVFKNVAVTLLDKLKCKIAGGC], for which the MIC in assay [1] is 3.1 µM (≈ 9.56 µg/mL); in assay [2], 6.3 µM (≈ 19.4 µg/mL); in assay [5], 25 µM (≈ 77.1 µg/mL); in assay [6], at least 50 µM; in assay [3], at least 100 µM; in assay [4], 50 µM (≈ 154 µg/mL). In [7], this compound registered an MIC of at least 100 µM.

Take `CC[C@H](C)[C@H](NC(=O)CN)C(=O)N[C@@H](Cc1cnc[nH]1)C(=O)N[C@@H](CC(=O)O)C(=O)N[C@H](C(=O)N[C@@H](CC(C)C)C(=O)N[C@@H](C)C(=O)N[C@@H](Cc1ccc(O)cc1)C(=O)NCC(=O)N[C@@H](CCCCN)C(=O)N1CCC[C@H]1C(=O)N[C@@H](CO)C(N)=O)[C@@H](C)CC` [GIHDILAYGKPS]: the MIC turned out to be 15 µM (≈ 19 µg/mL) in [8]; 15 µM (≈ 19 µg/mL) in assay [9]; 20 µM (≈ 25.4 µg/mL) in assay [10]; 15 µM (≈ 19 µg/mL) in assay [11]; 10 µM (≈ 12.7 µg/mL) in assay [12].

On to `CC[C@H](C)[C@H](NC(=O)CN)C(=O)N[C@@H](Cc1cnc[nH]1)C(=O)N[C@@H](CC(=O)O)C(=O)N[C@H](C(=O)N[C@@H](CC(C)C)C(=O)N[C@@H](CCCCN)C(=O)N[C@@H](Cc1ccc(O)cc1)C(=O)NCC(=O)N[C@@H](CCCCN)C(=O)N1CCC[C@H]1C(=O)N[C@@H](C)C(N)=O)[C@@H](C)CC` [GIHDILKYGKPA], for which the MIC in assay [8] is over 50 µM; in assay [9], at least 50 µM; in assay [10] it was 30 µM (≈ 39.3 µg/mL); in [11] it was at least 50 µM; in [12] it was over 50 µM.

Regarding `CC[C@H](C)[C@H](NC(=O)[C@H](CCCCN)NC(=O)[C@@H](NC(=O)[C@H](Cc1ccccc1)NC(=O)[C@H](C)NC(=O)[C@H](CCCCN)NC(=O)CNC(=O)[C@H](Cc1ccccc1)NC(=O)[C@H](CCCCN)NC(=O)[C@H](CCCCN)NC(=O)[C@H](C)NC(=O)[C@H](CCCCN)NC(=O)[C@H](CCCCN)NC(=O)[C@H](CC(C)C)NC(=O)[C@H](Cc1ccccc1)NC(=O)[C@H](CCCCN)NC(=O)CN)C(C)C)C(N)=O` [GKFLKKAKKFGKAFVKI], the MIC in [13] is 0.73 µM (≈ 1.41 µg/mL); in assay [14], at least 264 µM; in assay [15], 5.84 µM (≈ 11.3 µg/mL); in assay [4] it was 132 µM (≈ 256 µg/mL).

Regarding `CC[C@H](C)[C@H](NC(=O)[C@@H](N)Cc1cnc[nH]1)C(=O)N[C@@H](CCC(N)=O)C(=O)N[C@@H](CCCCN)C(=O)N[C@@H](CCC(=O)O)C(=O)N[C@@H](CC(=O)O)C(=O)N[C@H](C(=O)N1CCC[C@H]1C(=O)N[C@@H](CO)C(=O)N[C@@H](CCC(=O)O)C(=O)N[C@@H](CCCN=C(N)N)C(=O)N[C@@H](Cc1ccc(O)cc1)C(=O)N[C@@H](CC(C)C)C(=O)NCC(=O)N[C@@H](Cc1ccc(O)cc1)C(=O)N[C@@H](CC(C)C)C(=O)N[C@@H](CCC(=O)O)C(=O)N[C@@H](CCC(N)=O)C(=O)N[C@@H](CC(C)C)C(=O)N[C@@H](CC(C)C)C(=O)N[C@@H](CCCN=C(N)N)C(=O)N[C@@H](CC(C)C)C(=O)N[C@@H](CCCCN)C(=O)N[C@@H](CCCCN)C(=O)N[C@@H](Cc1ccc(O)cc1)C(=O)N[C@@H](CCCCN)C(=O)O)C(C)C` [HIQKEDVPSERYLGYLEQLLRLKKYK], the values for the minimal inhibitory concentration (MIC) in [16] and in assay [17] were at least 42.3 µM and at least 169 µM, respectively.

`CC[C@H](C)[C@H](N)C(=O)N[C@@H](CCCCN)C(=O)N[C@@H](CCCCN)C(=O)N[C@H](C(=O)N[C@@H](CC(C)C)C(=O)N[C@@H](CO)C(=O)N[C@@H](CCCCN)C(=O)N[C@H](C(=O)N[C@@H](CCCCN)C(=O)N[C@@H](CCCCN)C(=O)N[C@@H](Cc1c[nH]c2ccccc12)C(=O)N[C@@H](Cc1c[nH]c2ccccc12)C(=O)N[C@@H](CCCCN)C(=O)O)[C@@H](C)CC)[C@@H](C)CC` [IKKILSKIKKWWK]: the minimal inhibitory concentration (MIC) is 20 µM (≈ 34 µg/mL) against Bacillus cereus AS1.126; 6.25 µM (≈ 10.6 µg/mL) in [18]; at least 100 µM in assay [19]; 12.5 µM (≈ 21.2 µg/mL) in [20]; 10 µM (≈ 17 µg/mL) against Escherichia coli AS1.349; 10 µM (≈ 17 µg/mL) in [21]. Besides, the MIC in [22] was 10 µM (≈ 17 µg/mL); in assay [23] it was at least 100 µM; in assay [24], at least 100 µM; in [25] it was 12.5 µM (≈ 21.2 µg/mL).

In the case of `CC[C@H](C)[C@H](NC(=O)[C@H](CCCCN)NC(=O)[C@@H](NC(=O)[C@H](Cc1ccccc1)NC(=O)[C@H](C)NC(=O)[C@H](CCCCN)NC(=O)CNC(=O)[C@H](Cc1ccccc1)NC(=O)[C@@H](N)CCCCN)C(C)C)C(=O)N[C@@H](CC(C)C)C(=O)N[C@@H](CCCCN)C(=O)N[C@@H](CCCCN)C(N)=O` [KFGKAFVKILKK], the MIC is 16.1 µM (≈ 22.6 µg/mL) in assay [13], at least 257 µM in assay [14], at least 64.3 µM in assay [15] and 257 µM (≈ 362 µg/mL) in assay [4].

Consider `CC[C@H](C)[C@H](NC(=O)[C@H](CO)NC(=O)[C@H](CCC(=O)O)NC(=O)[C@H](CCCCN)NC(=O)[C@@H](NC(=O)[C@@H](N)CCCCN)C(C)C)C(=O)N[C@H](C(=O)N[C@@H](CCCN=C(N)N)C(=O)N[C@@H](CCCCN)C(=O)N[C@@H](CC(C)C)C(=O)O)[C@@H](C)CC` [KVKESIIRKL], for which the MIC in assay [16] is at least 500 µM; in assay [17], at least 1000 µM.

Regarding `CC(C)C[C@H](NC(=O)CNC(=O)[C@H](Cc1ccccc1)NC(=O)[C@H](CC(C)C)NC(=O)[C@H](CCCN=C(N)N)NC(=O)[C@H](CC(C)C)NC(=O)[C@H](Cc1c[nH]c2ccccc12)NC(=O)CNC(=O)[C@H](CO)NC(=O)[C@H](CCCN=C(N)N)NC(=O)[C@H](CCCN=C(N)N)NC(=O)[C@H](CCC(=O)O)NC(=O)[C@H](CC(C)C)NC(=O)[C@H](C)NC(=O)[C@@H](N)CC(C)C)C(=O)N[C@@H](CCCCN)C(=O)N1CCC[C@H]1C(=O)N[C@@H](CCCN=C(N)N)C(=O)N[C@@H](CCCN=C(N)N)C(=O)N[C@@H](CCCCN)C(=O)N[C@@H](Cc1cnc[nH]1)C(=O)O` [LALERRSGWLRLFGLKPRRKH], the MIC in the assay on Escherichia coli 44102 is at least 50 µM; in assay [26], 12.5 µM (≈ 32.4 µg/mL); against Bacillus subtilis A47, at least 50 µM.

These data come from DBAASP.
